Several values for one entry are separate records, joined by “and”; a condition that tells them apart may be missing. Equal entries are not always repeated. Toxic doses and inconclusive results are not listed. Rule for the calls: active = survival T/C of 150% or more; inactive = T/C below 125% in these data.
System: CD2F1 mice, L1210 leukemia ip, survival T/C
Assay: NCI In Vivo Anticancer Drug Screen. Data for tumor model L1210 Leukemia (intraperitoneal) in CD2F1 (CDF1) mice
Settings: higher = longer survival
Outline: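 Ratio T/C, where T is the treated-group value and C the vehicle-dosed control value, from mice implanted with a transplantable tumor.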

[1] = endpoint: mean survival time, dose: 100.0 mg/kg/injection, schedule: Q01DX009 (ip), vehicle: saline with Tween-80
[2] = endpoint: mean survival time, dose: 100.0 mg/kg/injection, schedule: Q04DX003 (ip), vehicle: saline with Tween-80
[3] = endpoint: mean survival time, dose: 200.0 mg/kg/injection, schedule: Q01DX009 (ip), vehicle: saline with Tween-80
[4] = endpoint: mean survival time, dose: 200.0 mg/kg/injection, schedule: Q04DX003 (ip), vehicle: saline with Tween-80
[5] = endpoint: mean survival time, dose: 400.0 mg/kg/injection, schedule: Q01DX009 (ip), vehicle: saline with Tween-80
[6] = endpoint: mean survival time, dose: 400.0 mg/kg/injection, schedule: Q04DX003 (ip), vehicle: saline with Tween-80

Measured: T/C

COc1ccc2cc3[n+](cc2c1OC)CCc1cc2c(cc1-3)OCO2
inactive: endpoint: mean survival time, dose: 5.0 mg/kg/injection, schedule: Q01DX009 (ip), vehicle: saline with Tween-80 106 % of control | endpoint: mean survival time, dose: 5.0 mg/kg/injection, schedule: Q04DX003 (ip), vehicle: saline with Tween-80 98 % of control | endpoint: mean survival time, dose: 10.0 mg/kg/injection, schedule: Q01DX009 (ip), vehicle: saline with Tween-80 93 % of control | endpoint: mean survival time, dose: 10.0 mg/kg/injection, schedule: Q04DX003 (ip), vehicle: saline with Tween-80 96 % of control | endpoint: mean survival time, dose: 20.0 mg/kg/injection, schedule: Q04DX003 (ip), vehicle: saline with Tween-80 94 % of control

O=C1CC2CCN(C(=O)c3ccccc3)C(Cc3c[nH]c4ccccc34)C2O1 (stereo unspecified)
inactive: endpoint: mean survival time, dose: 100.0 mg/kg/injection, schedule: Q01DX001 (ip), vehicle: saline 105 % of control | endpoint: mean survival time, dose: 200.0 mg/kg/injection, schedule: Q01DX001 (ip), vehicle: saline 94 % of control | endpoint: mean survival time, dose: 400.0 mg/kg/injection, schedule: Q01DX001 (ip), vehicle: saline 93 % of control

NN1C(=O)c2c(Cl)c(Cl)c(Cl)c(Cl)c2C1=O
inactive: [1] 97 % of control | [2] 95 % of control | [3] 98 % of control | [4] 97 % of control | [5] 93 % of control | [6] 92 % of control

Nc1ncnc2c(C3OC(CO)C(O)C3O)c[nH]c12 (stereo unspecified)
inactive: endpoint: median survival time, dose: 0.05 mg/kg/injection, schedule: Q01DX005 (ip), vehicle: saline 114 % of control and 121 % of control | endpoint: median survival time, dose: 0.1 mg/kg/injection, schedule: Q01DX005 (ip), vehicle: saline 116 % of control and 123 % of control | endpoint: median survival time, dose: 0.4 mg/kg/injection, schedule: Q01DX005 (ip), vehicle: saline 115 % of control | endpoint: median survival time, dose: 0.8 mg/kg/injection, schedule: Q01DX005 (ip), vehicle: saline 102 % of control and 104 % of control

C/C(=N\O)C1(C)CC=CCC1CO (stereo unspecified)
inactive: endpoint: mean survival time, dose: 100.0 mg/kg/injection, schedule: Q01DX009 (ip), vehicle: saline sonified 102 % of control | endpoint: mean survival time, dose: 200.0 mg/kg/injection, schedule: Q01DX009 (ip), vehicle: saline sonified 96 % of control | endpoint: mean survival time, dose: 400.0 mg/kg/injection, schedule: Q01DX009 (ip), vehicle: saline sonified 100 % of control

NC(=O)C(Cl)(Cl)C(Cl)(Cl)C(Cl)(Cl)Cl
inactive: [1] 100 % of control | [2] 100 % of control | [3] 93 % of control | [4] 95 % of control | [5] 90 % of control | [6] 94 % of control

NC1=NC(=O)N2CC12 (stereo unspecified)
active: endpoint: mean survival time, dose: 200.0 mg/kg/injection, schedule: Q01DX009 (ip), vehicle: saline 156 % of control and 173 % of control
inactive: endpoint: mean survival time, dose: 12.5 mg/kg/injection, schedule: Q01DX009 (ip), vehicle: other 100 % of control | endpoint: mean survival time, dose: 12.5 mg/kg/injection, schedule: Q01DX009 (ip), vehicle: saline 107 % of control | endpoint: mean survival time, dose: 25.0 mg/kg/injection, schedule: Q01DX009 (ip), vehicle: other 100 % of control | endpoint: mean survival time, dose: 25.0 mg/kg/injection, schedule: Q01DX009 (ip), vehicle: saline 106 % of control and 110 % of control | endpoint: mean survival time, dose: 50.0 mg/kg/injection, schedule: Q01DX009 (ip), vehicle: other 105 % of control | endpoint: mean survival time, dose: 50.0 mg/kg/injection, schedule: Q01DX009 (ip), vehicle: saline 115 % of control and 110 % of control

O=C(O)C(O)C(O)C(=O)O.[NH-]C1CCCCC1[NH-].[Pt+2] (stereo unspecified)
active: endpoint: mean survival time, dose: 12.5 mg/kg/injection, schedule: Q04DX003 (ip), vehicle: water 367 % of control | endpoint: mean survival time, dose: 25.0 mg/kg/injection, schedule: Q04DX003 (ip), vehicle: water 266 % of control | endpoint: mean survival time, dose: 50.0 mg/kg/injection, schedule: Q04DX003 (ip), vehicle: water 201 % of control
inactive: endpoint: mean survival time, dose: 1.56 mg/kg/injection, schedule: Q04DX003 (ip), vehicle: water 115 % of control

CCOC(=O)c1ccc(NC(=O)Nc2ccc(N(C)C(C)=O)cc2)cc1
inactive: endpoint: mean survival time, dose: 25.0 mg/kg/injection, schedule: Q04DX003 (ip), vehicle: saline with Tween-80 98 % of control | endpoint: mean survival time, dose: 50.0 mg/kg/injection, schedule: Q01DX009 (ip), vehicle: saline with Tween-80 87 % of control | endpoint: mean survival time, dose: 50.0 mg/kg/injection, schedule: Q04DX003 (ip), vehicle: saline with Tween-80 96 % of control | endpoint: mean survival time, dose: 100.0 mg/kg/injection, schedule: Q01DX001 (ip), vehicle: saline with Tween-80 100 % of control | [1] 87 % of control and 101 % of control | endpoint: mean survival time, dose: 100.0 mg/kg/injection, schedule: Q04DX002 (ip), vehicle: saline with Tween-80 90 % of control and 97 % of control | [2] 94 % of control and 109 % of control | endpoint: mean survival time, dose: 200.0 mg/kg/injection, schedule: Q01DX001 (ip), vehicle: saline with Tween-80 97 % of control | [3] 90 % of control and 91 % of control | endpoint: mean survival time, dose: 200.0 mg/kg/injection, schedule: Q04DX002 (ip), vehicle: saline with Tween-80 87 % of control and 91 % of control | [4] 104 % of control | endpoint: mean survival time, dose: 400.0 mg/kg/injection, schedule: Q01DX001 (ip), vehicle: saline with Tween-80 102 % of control | endpoint: mean survival time, dose: 400.0 mg/kg/injection, schedule: Q04DX002 (ip), vehicle: saline with Tween-80 88 % of control and 94 % of control
